ChEMBL document CHEMBL5113453, “Design, synthesis, and biological evaluation of a new series of pyrazole derivatives: Discovery of potent and selective JNK3 kinase inhibitors” (Bioorg Med Chem, 2022)

Key:
Type in all cases: functional, cell-based
[1] = system: SF-539; experiment: Antiproliferative activity against human SF-539 cells measured after 48 hrs by SRB assay
[2] = system: SF-295; experiment: Antiproliferative activity against human SF-295 cells measured after 48 hrs by SRB assay
[3] = system: NCI-H460; experiment: Antiproliferative activity against human NCI-H460 cells measured after 48 hrs by SRB assay
[4] = system: Hs-578T; experiment: Antiproliferative activity against human Hs-578T cells measured after 48 hrs by SRB assay
[5] = system: SK-MEL-2; experiment: Antiproliferative activity against human SK-MEL-2 cells measured after 48 hrs by SRB assay
[6] = system: MDA-MB-231; experiment: Antiproliferative activity against human MDA-MB-231 cells measured after 48 hrs by SRB assay
[7] = system: T47D; experiment: Antiproliferative activity against human T47D cells measured after 48 hrs by SRB assay
[8] = system: SK-MEL-5; experiment: Antiproliferative activity against human SK-MEL-5 cells measured after 48 hrs by SRB assay
[9] = system: TK-10; experiment: Antiproliferative activity against human TK-10 cells measured after 48 hrs by SRB assay
[10] = system: NCI-H23; experiment: Antiproliferative activity against human NCI-H23 cells measured after 48 hrs by SRB assay
[11] = system: CCRF-CEM; experiment: Antiproliferative activity against human CCRF-CEM cells measured after 48 hrs by SRB assay
[12] = system: UO-31; experiment: Antiproliferative activity against human UO-31 cells measured after 48 hrs by SRB assay
[13] = system: IGROV-1; experiment: Antiproliferative activity against human IGROV-1 cells measured after 48 hrs by SRB assay
[14] = system: HOP-62; experiment: Antiproliferative activity against human HOP-62 cells measured after 48 hrs by SRB assay
[15] = system: U-251; experiment: Antiproliferative activity against human U-251 cells measured after 48 hrs by SRB assay
[16] = system: COLO 205; experiment: Antiproliferative activity against human COLO 205 cells measured after 48 hrs by SRB assay
[17] = system: MDA-MB-435; experiment: Antiproliferative activity against human MDA-MB-435 cells measured after 48 hrs by SRB assay
[18] = system: MCF7; experiment: Antiproliferative activity against human MCF7 cells measured after 48 hrs by SRB assay
[19] = system: HCC 2998; experiment: Antiproliferative activity against human HCC 2998 cells measured after 48 hrs by SRB assay
[20] = system: HT-29; experiment: Antiproliferative activity against human HT-29 cells measured after 48 hrs by SRB assay
[21] = system: UACC-257; experiment: Antiproliferative activity against human UACC-257 cells measured after 48 hrs by SRB assay
[22] = system: HOP-92; experiment: Antiproliferative activity against human HOP-92 cells measured after 48 hrs by SRB assay

With `O=C1c2ccccc2-c2n[nH]c3cccc1c23` the IC50 ([1]; SF-539, 48 h) was 32.2 µM, the TGI ([1]; SF-539, time 48 hrs) was over 100 µM and the IC50 ([2]; SF-295, 48 h) was 22.5 µM. It also gave a TGI ([2]; SF-295, time 48 hrs) of 86.3 µM, an IC50 ([3]; NCI-H460, 48 h) of 9.86 µM and a TGI ([3]; NCI-H460, time 48 hrs) of over 100 µM. It also gave an IC50 ([4]; 48 h) of 55.1 µM, a TGI ([4]; time 48 hrs) of over 100 µM and an IC50 ([5]; SK-MEL-2, 48 h) of 29 µM. For the same compound, the TGI ([5]; SK-MEL-2, time 48 hrs) was over 100 µM, the IC50 ([6]; MDA-MB-231, 48 h) was 65.3 µM and the TGI ([6]; MDA-MB-231, time 48 hrs) was over 100 µM. The IC50 ([7]; 48 h) was over 100 µM, the TGI ([7]; time 48 hrs) was over 100 µM and the IC50 ([8]; SK-MEL-5, 48 h) was 14.6 µM. It also gave a TGI ([8]; SK-MEL-5, time 48 hrs) of 37.5 µM, an IC50 ([9]; TK-10, 48 h) of 5.93 µM and a TGI ([9]; TK-10, time 48 hrs) of 52 µM. It also gave an IC50 ([10]; NCI-H23, 48 h) of 23.8 µM, a TGI ([10]; NCI-H23, time 48 hrs) of 58.1 µM and an IC50 ([11]; 48 h) of 16 µM. For the same compound, the TGI ([11]; time 48 hrs) was over 100 µM, the IC50 ([12]; UO-31, 48 h) was 10.5 µM and the TGI ([12]; UO-31, time 48 hrs) was over 100 µM. For the same compound, the IC50 ([13]; IGROV-1, 48 h) was 11.3 µM, the TGI ([13]; IGROV-1, time 48 hrs) was over 100 µM and the IC50 ([14]; HOP-62, 48 h) was 69.3 µM. The TGI ([14]; HOP-62, time 48 hrs) was over 100 µM, the IC50 ([15]; U-251, 48 h) was 23.1 µM and the TGI ([15]; U-251, time 48 hrs) was over 100 µM. For the same compound, the IC50 ([16]; COLO 205, 48 h) was 19.5 µM, the TGI ([16]; COLO 205, time 48 hrs) was over 100 µM and the IC50 ([17]; MDA-MB-435, 48 h) was 12.8 µM. The TGI ([17]; MDA-MB-435, time 48 hrs) was over 100 µM, the IC50 ([18]; MCF7, 48 h) was 49 µM and the TGI ([18]; MCF7, time 48 hrs) was over 100 µM. It also gave an IC50 ([19]; HCC 2998, 48 h) of 9.62 µM, a TGI ([19]; HCC 2998, time 48 hrs) of 54.6 µM and an IC50 ([20]; HT-29, 48 h) of 25.9 µM. It also gave a TGI ([20]; HT-29, time 48 hrs) of over 100 µM, an IC50 ([21]; UACC-257, 48 h) of 29.5 µM and a TGI ([21]; UACC-257, time 48 hrs) of over 100 µM. The IC50 ([22]; HOP-92, 48 h) was 37.6 µM and the TGI ([22]; HOP-92, time 48 hrs) was over 100 µM.
